From ChEMBL document CHEMBL1134496, “An optimized protein kinase C activating diacylglycerol combining high binding affinity (Ki) with reduced lipophilicity (log P)” (J Med Chem, 2001)

Assay: Partition coefficient (logP)
Assay type: physicochemical
Settings: octanol/water

| SMILES | logP |
| --- | --- |
| CC(=O)O[C@@]12C[C@@H](C)[C@@]3(O)[C@@H](C=C(CO)C[C@]4(O)C(=O)C(C)=C[C@@H]34)[C@@H]1C2(C)C [PROSTRATIN] | 1.9 |
| CC(C)CC(=O)O[C@@H](CO)COC(=O)CC(C(C)C)C(C)C | 3.97 |
| CC(C)C(=CC(=O)OC[C@H](CO)OC(=O)C=C(C(C)C)C(C)C)C(C)C | 5.62 |
| CCCC(=O)O[C@@H]1[C@@H](C)[C@@]2(O)[C@@H](C=C(CO)C[C@]3(O)C(=O)C(C)=C[C@@H]23)[C@@H]2C(C)(C)[C@]12OC(=O)CCC | 3.4 |
| CC(C)CC(=O)OC[C@H](CO)OC(=O)CC(C(C)C)C(C)C | 3.97 |
| CC(C)=CC(=O)OC[C@H](CO)OC(=O)C=C(C)C | 1.99 |
| CC(C)=CC(=O)OC[C@H](CO)OC(=O)CC(C)C | 2.07 |
| CC(C)=CC(=O)O[C@@H](CO)COC(=O)CC(C(C)C)C(C)C | 3.88 |
| CC(C)=CC(=O)O[C@@H](CO)COC(=O)C=C(C(C)C)C(C)C | 3.8 |
| CC(C)C(=CC(=O)OC[C@H](CO)OC(=O)CC(C(C)C)C(C)C)C(C)C | 5.71 |
| CCCCCCCC(=O)OC[C@H](CO)OC(=O)CCCCCCC | 5.3 |
| CC(C)=CC(=O)OC[C@H](CO)OC(=O)CC(C(C)C)C(C)C | 3.88 |
| CC(C)C(CC(=O)OC[C@H](CO)OC(=O)CC(C(C)C)C(C)C)C(C)C | 5.79 |
| CC(C)CC(=O)OC[C@H](CO)OC(=O)C=C(C(C)C)C(C)C | 3.89 |
| CC(C)CC(=O)O[C@@H](CO)COC(=O)C=C(C(C)C)C(C)C | 3.89 |
| CC(C)CC(=O)OC[C@H](CO)OC(=O)CC(C)C | 2.16 |
| CC(C)=CC(=O)OC[C@H](CO)OC(=O)C=C(C(C)C)C(C)C | 3.8 |
| CCCCCCCC/C=C/CCCCCCCC(=O)OC[C@H](CO)OC(C)=O | 7 |
| CC(C)=CC(=O)O[C@@H](CO)COC(=O)CC(C)C | 2.07 |
| CC(C)C(=CC(=O)O[C@@H](CO)COC(=O)CC(C(C)C)C(C)C)C(C)C | 5.71 |
